Assay [1] addresses T1, complement component 5a receptor 2 (C5AR2) (Homo sapiens, UniProt Q9P296).
T1 construct: purchased CUSABIO CSB-CF868390HU
The experiment in a line: BIAcore SPR binding to C5aR2 immobilised on sensorchip CM5 via His-tag. An excerpt:
BIAcore technology was used to analyze the interaction between Paclitaxel and complement component 5a receptor 1 (C5aR1) (Example 1), complement component 5a receptor 2 (C5AR2) (Example 2) or complement component 5a (Example 3).
The BIAcore systems exploit the phenomenon of Surface Plasmon Resonance (SPR) to monitor interactions between molecules in real time. Briefly, SPR phenomenon occurs in thin conducting films at an interface between media of different refractive index. In BIAcore systems, the media are the glass of the sensorchip and the sample solution, and the conducting film is a thin layer of gold on the sensorchip surface. BIAcore monitors the interaction between two molecules, one attached to the sensor surface, called ligand, and the other one free in solution, and called analyte.
A policlonal anti-His antibody (ab137839, Abcam) was immobilized on a sensorchip CM5 (#29149604, Cytiva). In details, the antibody was diluted at a concentration of 50 μg/ml in 10 mM acetate buffer at pH 4.0, and injected over the surface of the sensorchip. Activation and deactivation of sensorchip were performed as described in Example 1a). […] Once the antibody was immobilized, the receptor was captured in an oriented way on the surface of the sensorchip. In particular, C5AR2-His (CSB-CF868390HU, CUSABIO) at a concentration of 100 μg/ml was injected onto the sensorchip with a flow rate of 5 microl/min in Running Buffer.
5 μM C5a (A144, Complement Technologies) was injected on C5AR2 surface of the sensorchip prepared in Example 2a).
Paclitaxel was injected on the C5aR2 surface of the sensorchip prepared in Example 2a) at different concentrations (10, 100 and 200 microM) in Running Buffer, and the amount of obtained RU was evaluated.
(In SPR one partner is held on a chip, and binding of the other changes the refractive index at the surface.)

Assay [2] deals with RAW 264.7 mouse macrophages. The experiment in a line: Proteome profiler cytokine release assay in RAW 264.7 macrophages. The settings on record: 10 nM, 24 h; for proteome profile of cytokines released: murine. In kind it is cell-based. Here is the method: RAW 264.7 (ATTC TIB-71) mouse macrophages were cultured following manufacturer's instructions using DMEM medium (Euroclone, MI, Italy) supplemented with 10% FBS (non-heat inactivated) (ATCC, USA) at 37° C., in a humidified 95% air-5% CO2 atmosphere and then were seeded at 1*10^4 cells/cm^2.
(§1) After 24 hours, cells were treated with C5a (diluted in medium) (10 nM, R&D, USA), Paclitaxel (diluted in medium) (10 nM, Sigma, USA) in the absence and in the presence of the C5a inhibitor DF3966A (10 μM), and anti C5aR Ab (BioLegend, CA, USA; 50 nM) or Avacopan (10 μM) for 24 hours, then the media was replaced with culture media (5 ml) for 24 h and then collected.
(§2) Conditioned media were centrifugated to remove particulates and assayed immediately. […] The reagents were prepared following manufacturer's protocols (R&D, USA). Briefly, the membranes were incubated with Array Buffer 6 for 1 hour on a rocking platform shaker. The samples were prepared by adding up to 1 ml of Array Buffer 4 in two separated tubes and then 15 microl of reconstituted mouse cytokine detection antibody cocktail (>40 mouse cytokines) to each prepared sample and incubated 1 hour. Then, the Array Buffer 6 was aspirated and replaced with the sample/antibody mixtures and incubated at 4° C. overnight. The following day, membranes were washed 3 times and Streptavidin-HRP (1:2000) was incubated for 30 minutes at room temperature on a rocking platform shaker. The membranes were washed again, and 1 ml of prepared Chemi Reagent mix was placed onto each membrane. Multiple exposure times were acquired using UVITEC digital analyzer (Alliance, Cambridge, UK).
(§3) The positive signals seen in the developed membranes can be identified by placing the transparency overlay template on the array image and aligning it with pairs of reference spots in the three corners of each array (see FIG. 10). […] Pixel densities (average signals of pair of duplicates which represent each cytokine) were analyzed by ImageJ and the average background was subtracted from each spot.
(§4) In details, the profiling of cytokines released (>40 cytokines) from RAW 264.7 and human macrophages challenged with paclitaxel (Sigma-Aldrich; 10 nM) or C5a (R&D Systems, Inc. MN, USA; 10 nM) for 24 h using a proteome profiler assay. […] The experimental assay is explained in example 4.
(§5) For the human macrophages, human XL Cytokine Array kit #Ary022B was used, while for murine macrophages mouse cytokine Array Panel A #Ary006 was used (R&D systems, USA).

In assay [3] the test system is human (THP-1) macrophages. The experiment in a line: Proteome profiler cytokine release assay in human macrophages. In kind it is cell-based. The conditions noted are these: human; 10 nM, 24 h. Here is the method:
as §1, §2, §3, §4, §5

In another assay the test system is F11 hybridoma cells. The experiment in a line: Real Time PCR for IL-8 mRNA expression in differentiated F11 cells. The conditions noted are these: 20 h; 10 nM Paclitaxel or 50 nM C5a. In kind it is cell-based. Here is the method: F11 hybridoma cells (ECACC 08062601), chosen as an alternative model of DRG neurons were cultured in DMEM medium (Euroclone, MI, Italy) supplemented with 10% FBS (Sigma-Aldrich St. Louis, CO, USA), 1% penicillin/streptomycin (Euroclone) and 1% glutamine (Euroclone) at 37° C., in a humidified 95% air-5% CO2 atmosphere. For the experiments, cells were used at 18th passage and seeded at 1×10^4 cells/cm2. After 24 h, cells were differentiated with rat NGF (rNGF) (Sigma). rNGF was dissolved in DMEM with 1% penicillin/streptomycin and 1% glutamine (FBS free) at the final concentration 50 ng/ml. The medium was replaced every 3 days until complete differentiation, which happened after 7 days. […]
For gene expression analysis, the following protocol was used: total RNA was extracted by Trizol reagent, according to the manufacturer's instructions. The total RNA concentration was determined spectrophotometrically in RNAase-free water, and 1 μg aliquots of total RNA were reverse-transcripted into cDNA using ProtoScript First Strand cDNA Synthesis Kit (NEB). […] Relative expression levels were calculated for each sample after normalization against reference gene, using the ΔΔCt method for comparing relative fold expression differences, as previously described [Livak et al., 2001 DOI: 10.1006/meth.2001.1262]. […]
On the technique in general: Quantitative PCR measures a nucleic acid by following its amplification.

T1 sequence (Q9P296 whole entry): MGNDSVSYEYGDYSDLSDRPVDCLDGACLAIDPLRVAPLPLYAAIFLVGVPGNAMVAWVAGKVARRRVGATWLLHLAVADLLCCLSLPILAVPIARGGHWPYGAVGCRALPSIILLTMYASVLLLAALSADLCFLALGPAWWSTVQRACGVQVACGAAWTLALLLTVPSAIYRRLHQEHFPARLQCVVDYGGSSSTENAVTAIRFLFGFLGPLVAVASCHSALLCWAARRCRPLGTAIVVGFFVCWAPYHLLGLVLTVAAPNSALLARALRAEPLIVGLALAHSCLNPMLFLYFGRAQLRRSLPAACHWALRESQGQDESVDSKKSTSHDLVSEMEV

Turning to `CC(=O)O[C@H]1C(=O)[C@@]2(C)[C@H]([C@H](OC(=O)c3ccccc3)[C@]3(O)C[C@H](OC(=O)[C@H](O)[C@@H](NC(=O)c4ccccc4)c4ccccc4)C(C)=C1C3(C)C)[C@]1(OC(C)=O)CO[C@@H]1C[C@@H]2O` [Paclitaxel], the “binding to immobilised C5aR2” value in assay [1] (10, 100 and 200 microM in Running Buffer) was “not able to bind”. Further, the “binding to immobilised C5aR2 (legend of FIG. 8)” value in assay [1] (from 4.06 μM to 37.5 μM) is on record as “not able to bind”. The “levels of MCP-1, MIP-1α, MIP-1β, MIP-2 and ID Ra compared to the control group” value in assay [2] is listed as “significantly increased”. In addition, the “proteome profile of cytokines released” value in assay [2] and in assay [3] was “resembled that of typical anaphylaxis” each time. The “IL-8 relative mRNA expression” value with F11 hybridoma cells is reported as “increase IL-8 expression levels”.

B1: C5a: anaphylatoxin, pro-inflammatory polypeptide, the natural ligand of the receptor C5aR1 (protein, UniProt P01031 678-751, looked up)
C5a anaphylatoxin: TLQKKIEEIAAKYKHSVVKKCCYDGACVNNDETCEQRAARISLGPRCIKAFTECCVVASQLRANISHKDMQLGR
modifications: C5a anaphylatoxin
notes: anaphylatoxin, pro-inflammatory polypeptide, the natural ligand of the receptor C5aR1
For the molecule B1, the “binding to immobilised C5aR2” value in assay [1] (5 μM) was “is able to bind”. Also, in assay [2], the “levels of MCP-1, MIP-1α, MIP-1β, MIP-2 and ID Ra compared to the control group” value is on record as “significantly increased”; the “proteome profile of cytokines released” value is recorded as “resembled that of typical anaphylaxis”. Further, the “proteome profile of cytokines released” value in assay [3] is “resembled that of typical anaphylaxis”. Further, in the assay with F11 hybridoma cells, the “IL-8 relative mRNA expression” value is on record as “increases IL-8 expression levels”.
